Assay results as given in US9980973B2, “Bicyclic heterocycle compounds and their uses in therapy” (ASTEX THERAPEUTICS LIMITED, priority 2012, dated 2018).
Counter-ions that a name gives are not always drawn. Like-named read-outs stand apart in the source and are kept apart here.

System: EVSA-T (human breast carcinoma)
Assay: Anti-proliferative activity, Alamar Blue assay, EVSA-T
Format: cell-based
[1] = Homo sapiens, EVSA-T, 72 h, EVSA-T cells, 72 hours, Alamar Blue, read-out: EVSA-T prolif
[2] = Homo sapiens, EVSA-T, read-out: EC50 in EVSA-T cell line assays
[3] = EVSA-T cells, 72 hours, Alamar Blue, dihydrochloride, read-out: EVSA-T prolif

| Structure (SMILES) | EC50 [1] [nM] | EC50 [2] [nM] | EC50 [3] [nM] |
| --- | --- | --- | --- |
| C[C@@H]1CN(CC(=O)N2CC(C)(C)c3ncc(Cc4ccc(F)cc4)cc32)[C@@H](CN2C[C@H](CO)OC[C@H]2C)CN1 [Example 119, 1-{6-[(4-Fluorophenyl)methyl]-3,3-dimethyl-1H,2H,3H-pyrrolo[3,2-b]pyridin-1-yl}-2-[(2R,5R)-2-{[(2R,5R)-2-(hydroxymethyl)-5-methylmorpholin-4-yl]methyl}-5-methylpiperazin-1-yl]ethan-1-one, dihydrochloride] | 0.32 | < 1000 |  |
| CCCC(F)(F)c1cc2c(cn1)C(C)(C)CN2C(=O)CN1C[C@@H](C)NC[C@@H]1CN1[C@H](C)CN(C(C)=O)C[C@@H]1C [Example 93, 2-[(2R,5R)-2-{[(2R,6S)-4-Acetyl-2,6-dimethylpiperazin-1-yl]methyl}-5-methylpiperazin-1-yl]-1-[6-(1,1-difluorobutyl)-3,3-dimethyl-1H,2H,3H-pyrrolo[3,2-c]pyridin-1-yl]ethan-1-one dihydrochloride] | 7.1 | < 1000 |  |
| C[C@@H]1CN(CC(=O)N2CC(C)(C)c3ncc(Cc4ccc(F)cc4)cc32)[C@@H](CN2CCC(F)(F)CC2)CN1 [Example 4, 2-[(2R,5R)-2-[(4,4-Difluoropiperidin-1-yl)methyl]-5-methylpiperazin-1-yl]-1-{6-[(4-fluorophenyl)methyl]-3,3-dimethyl-1H,2H,3H-pyrrolo[3,2-b]pyridin-1-yl}ethan-1-one dihydrochloride] | 6.8 | < 1000 |  |
| C[C@@H]1CN(CC(=O)N2CC(C)(C)c3ncc(Cc4ccc(F)cc4)cc32)[C@@H](CN2CCC[C@H]2C(F)(F)F)CN1 [Example 36, 1-{6-[(4-Fluorophenyl)methyl]-3,3-dimethyl-1H,2H,3H-pyrrolo[3,2-b]pyridin-1-yl}-2-[(2R,5R)-5-methyl-2-{[(2S)-2-(trifluoromethyl)pyrrolidin-1-yl]methyl}piperazin-1-yl]ethan-1-one] | 12 | < 1000 |  |
| C[C@@H]1CN(CC(=O)N2CC(C)(C)c3ncc(Cc4ccc(F)cc4)cc32)[C@@H](CN2CCn3cnnc3C2)CN1 [Example 71, 1-{6-[(4-Fluorophenyl)methyl]-3,3-dimethyl-1H,2H,3H-pyrrolo[3,2-b]pyridin-1-yl}-2-[(2R,5R)-5-methyl-2-{5H, 6H, 7H, 8H-[1,2,4]triazolo[4,3-a]pyrazin-7-ylmethyl}piperazin-1-yl]ethan-1-one dihydrochloride] | 98 | < 1000 |  |
| C[C@@H]1CN(CC(=O)N2CC(C)(C)c3ncc(Cc4ccc(F)cc4)cc32)[C@@H](CN2CCC[C@H]2CF)CN1 [Example 30, 2-[(2R,5R)-2-{[(2S)-2-(Fluoromethyl)pyrrolidin-1-yl]methyl}-5-methylpiperazin-1-yl]-1-{6-[(4-fluorophenyl)methyl]-3,3-dimethyl-1H,2H,3H-pyrrolo[3,2-b]pyridin-1-yl}ethan-1-one dihydrochloride] | 1.2 | < 1000 |  |
| C[C@@H]1CN(CC(=O)N2CC(C)(C)c3cnc(Cc4ccc(F)cc4F)cc32)[C@@H](CN2[C@H](C)COC[C@H]2C)CN1 [Example 63, 1-{6-[(2,4-Difluorophenyl)methyl]-3,3-dimethyl-1H,2H,3H-pyrrolo[3,2-c]pyridin-1-yl}-2-[(2R,5R)-2-{[(3R,5R)-3,5-dimethylmorpholin-4-yl]methyl}-5-methylpiperazin-1-yl]ethan-1-one, dihydrochloride] | 0.48 | < 1000 |  |
| C[C@@H]1CN(CC(=O)N2CC(C)(C)c3ncc(Cc4ccc(F)cc4)cc32)[C@@H](CN2CCOCC(F)(F)C2)CN1 [Example 28, 2-[(2R,5R)-2-[(6,6-Difluoro-1,4-oxazepan-4-yl)methyl]-5-methylpiperazin-1-yl]-1-{6-[(4-fluorophenyl)methyl]-3,3-dimethyl-1H,2H,3H-pyrrolo[3,2-b]pyridin-1-yl}ethan-1-one dihydrochloride] | 3.1 | < 1000 |  |
| C[C@@H]1CN(CC(=O)N2CC(C)(C)c3ncc(Cc4ccc(F)cc4)cc32)[C@@H](CN2[C@H](CO)COC[C@H]2C)CN1 [Example 37, 1-{6-[(4-Fluorophenyl)methyl]-3,3-dimethyl-1H,2H,3H-pyrrolo[3,2-b]pyridin-1-yl}-2-[(2R,5R)-2-{[(3R,5R)-3-(hydroxymethyl)-5-methylmorpholin-4-yl]methyl}-5-methylpiperazin-1-yl]ethan-1-one, dihydrochloride] | 2.8 | < 1000 |  |
| C[C@@H]1CN(CC(=O)N2CC(C)(C)c3ncc(C(O)c4ccc(F)c(F)c4)cc32)[C@@H](CN2[C@H](C)COC[C@H]2C)CN1 (single isomer, unassigned) [Example 109, (R or S)-1-{6-[(3,4-Difluorophenyl)(hydroxy)meth-yl]-3,3-dimethyl-1H,2H,3H-pyrrolo[3,2-b]pyridin-1-yl}-2-[(2R,5R)-2-{[(3R,5R)-3,5-dimethylmorpholin-4-yl]methyl}-5-methylpiperazin-1-yl]ethan-1-one dihydrochloride] |  | < 1000 | 9.7 |
| CC(C)[C@@H]1COCCN1C[C@H]1CN[C@H](C)CN1CC(=O)N1CC(C)(C)c2ncc(Cc3ccc(F)cc3)cc21 [Example 13, 1-{6-[(4-Fluorophenyl)methyl]-3,3-dimethyl-1H,2H,3H-pyrrolo[3,2-b]pyridin-1-yl)-2-[(2R,5R)-5-methyl-2-{[(3R)-3-(propan-2-yl)morpholin-4-yl]methyl}piperazin-1-yl]ethan-1-one dihydrochloride] | 1.2 | < 1000 |  |
| C[C@@H]1CN(CC(=O)N2CC(C)(C)c3ncc(Cc4ccc(F)cc4)cc32)[C@@H](CN2CCC(O)CC2)CN1 [Example 23, 1-{6-[(4-Fluorophenyl)methyl]-3,3-dimethyl-1H,2H,3H-pyrrolo[3,2-b]pyridin-1-yl}-2-[(2R,5R)-2-[(4-hydroxypiperidin-1-yl)methyl]-5-methylpiperazin-1-yl]ethan-1-one dihydrochloride] | 3.8 | < 1000 |  |
| C[C@@H]1CN(CC(=O)N2CC(C)(C)c3ncc(C(O)c4ccc(F)c(F)c4)cc32)[C@@H](CN2[C@H](C)COC[C@H]2C)CN1 (single isomer, unassigned) [Example 110, (R or S)-1-{6-[(3,4-Difluorophenyl)(hydroxy)meth-yl]-3,3-dimethyl-1H,2H,3H-pyrrolo[3,2-b]pyridin-1-yl}-2-[(2R,5R)-2-{[(3R,5R)-3,5-dimethylmorpholin-4-yl]methyl}-5-methylpiperazin-1-yl]ethan-1-one dihydrochloride] |  |  | 2.8 |
| C[C@@H]1CN(CC(=O)N2CC(C)(C)c3c2cc(Cc2ccc(F)cc2)c[n+]3[O-])[C@@H](CN2[C@H](C)COC[C@H]2C)CN1 [Example 121, 1-{2-[(2R,5R)-2-{[(3R,5R)-3,5-Dimethylmorpholin-4-yl]methyl}-5-methylpiperazin-1-yl]acetyl}-6-[(4-fluorophenyl)methyl]-3,3-dimethyl-1H,2H,3H-pyrrolo[3,2-b]-pyridin-4-oxide dihydrochloride] | 0.37 | < 1000 |  |
| CC(=O)N1CCN(C[C@H]2CN[C@H](C)CN2CC(=O)N2CC(C)(C)c3ncc(Cc4ccc(F)cc4)cc32)C(C)C1 (mixture of isomers) [Example 33, 2-[(2R,5R)-2-[(4-Acetyl-2-methylpiperazin-1-yl)methyl]-5-methylpiperazin-1-yl]-1-{6-[(4-fluorophenyl)methyl]-3,3-dimethyl-1H,2H,3H-pyrrolo[3,2-b]pyridin-1-yl}ethan-1-one dihydrochloride] | 0.46 | < 1000 |  |
| COCC1(C)COCCN1C[C@H]1CN[C@H](C)CN1CC(=O)N1CC(C)(C)c2ncc(Cc3ccc(F)cc3)cc21 (single isomer, unassigned) [Example 99, dihydrochloride] | 1.5 |  |  |
| C[C@@H]1CN(CC(=O)N2CC(C)(C)c3ncc(C(O)c4ccccc4)cc32)[C@@H](CN2[C@H](C)COC[C@H]2C)CN1 (single isomer, unassigned) [Example 114, 2-[(2R,5R)-2-{[(3R,5R)-3,5-Dimethymorpholin-4-yl]methyl}-5-methylpiperazin-1-yl]-1-{(R or S)-6-[hydroxy(phenyl)methyl]-3,3-dimethyl-1H,2H,3H-pyrrolo[3,2-b]pyridin-1-yl}ethan-1-one dihydrochloride] |  |  | 24 |
| C[C@@H]1CN(CC(=O)N2CC(C)(C)c3ncc(C(O)c4cc(F)ccc4F)cc32)[C@@H](CN2[C@H](C)COC[C@H]2C)CN1 (single isomer, unassigned) [Example 115, 1-{(R or S)-6-[(2,5-Difluorophenyl)(hydroxy)meth-yl]-3,3-dimethyl-1H,2H,3H-pyrrolo[3,2-b]pyridin-1-yl}-2-[(2R,5R)-2-{[(3R,5R)-3,5-dimethylmorpholin-4-yl]methyl}-5-methylpiperazin-1-yl]ethan-1-one dihydrochloride] |  | < 1000 | 9.5 |
| CC1CC(=O)CCN1C[C@H]1CN[C@H](C)CN1CC(=O)N1CC(C)(C)c2ncc(Cc3ccc(F)cc3)cc21 (single isomer, unassigned) [Example 39, (2R or 2S)-1-{[(2R,5R)-1-(2-{6-[(4-Fluorophenyl)methyl]-3,3-dimethyl-1H,2H,3H-pyrrolo[3,2-b]pyridin-1-yl}-2-oxoethyl)-5-methylpiperazin-2-yl]methyl}-2-methylpiperidin-4-one dihydrochloride] | 5.4 | < 1000 |  |
| C[C@@H]1CN(CC(=O)N2CC(C)(C)c3ncc(Cc4ccc(F)cc4)cc32)[C@@H](CN2CCC(F)(F)C2)CN1 [Example 6, 2-[(2R,5R)-2-[(3,3-Difluoropyrrolidin-1-yl)methyl]-5-methylpiperazin-1-yl]-1-{6-[(4-fluorophenyl)methyl]-3,3-dimethyl-1H,2H,3H-pyrrolo[3,2-b]pyridin-1-yl}ethan-1-one dihydrochloride] | 4.6 | < 1000 |  |
| CC1CC(=O)CCN1C[C@H]1CN[C@H](C)CN1CC(=O)N1CC(C)(C)c2ncc(Cc3ccc(F)cc3)cc21 (single isomer, unassigned) [Example 40, dihydrochloride] |  |  | 2.8 |
